Laboratory results from patent US20030207843A1, “Treatment of drug-resistant human immunodeficiency virus infection” (priority 1999, published 2003).
Read-outs that look alike come from different tables or passages of the source.

Key:
Type in all cases: cell-based
HIV-1LAI M41L/T215Y = assay: p24 reduction assay in MT-2 cells, M41L/T215Y; conditions: for EC50: M41L/T215Y; for Fold-resistance: M41L/T215Y relative to wild type virus
Protocol: (§1) Cells. MT-2 cells (AIDS Research and Reference Reagent Program, National Institute of Allergy and Infectious Diseases, National Institutes of Health) were maintained in RPMI 1640 supplemented with 10% fetal bovine serum (FBS; JRH Biosciences, Lenexa, Kans.), 10 mM HEPES buffer, 50 IU/ml penicillin and 50 μg/ml streptomycin.
(§2) Antiviral Susceptibility Assays. The antiviral activity of each compound was determined by inoculating MT-2 cells with HIV-1LAI at a multiplicity of infection (MOI) of 0.01 TCID50/cell, followed by incubation in the presence of three-fold serial drug dilutions (3 wells per dilution) (see Mellors, et. al., Antimicrob. Agents Chemother. 39:1087-1092). Five or seven days after infection, culture supernatants were harvested, lysed with 0.5% triton-X 100 and assayed for p24 antigen concentration using a commercial ELISA assay (DuPont, NEN Products, Wilmington, Del.). The antiviral activity of the compounds is expressed as the IC50, which is the concentration required to inhibit 50% of p24 antigen production. The fold-resistance of a test virus is calculated by dividing the IC50 of the test virus by the IC50 of the HIV-1LAI control virus.
(§3) Generation of Mutant Recombinant HIV-1. HIV-1 containing the desired mutations were generated by oligonucleotide directed mutagenesis (Altered Sites II, Promega) as previously described (Mellors, et. al., Molecular Pharm. 41:446-451). After mutagenesis, mutant RT was subcloned into the pxxHIV-1LAI cloning vector using the silent XmaI and XbaI restriction sites located at the 5′ and 3′ ends of RT. Clones were DNA sequenced to verify the presence of the desired mutation(s) and electroporated into MT-2 cells as described above to generate infectious mutant recombinant HIV-1.
(§4) Mutant RT was generated via oligonucleotide-directed mutagenesis and ligated into the pXXHIV-1LAI cloning vector. Cloning was facilitated by the presence of two silent restriction sites at the 5′ and 3′ ends (Xma1 and Xba1, respectively) of pXXHIV-1LAI RT. Infectious mutant recombinant HIV-1 was generated by electroporating MT-2 cells with mutated pXXHIV-1LAI clones. The presence of the desired mutations was verified by DNA sequencing.
(§5) The multi-drug resistant HIV-1 strains, 11163p1 and 11588p1, are human clinical isolates having the RT mutations indicated. HIV-1 strains treated with the lipid analogs of the present invention include wild type, e.g., xxLAI, and the like, single mutation, e.g., xxLAI MI 84V (resistant to 3TC), xxLAI L74V (resistant to ddI and ddC), xxLAI K65R (resistant to ddI, ddC, DAPD, DXG, tenofovir, and adefovir), xxLAI T215Y (resistant to AZT), and the like, double mutations, e.g., xxLAI M41 L/T215Y (resistant to AZT), xxLAI MI 84V/T215Y (resistant to 3TC and AZT), and the like, and multiple mutations, e.g., xxLAI 4XAZT ((D67N, K70R, T215Y, K219Q) resistant to AZT)), xxLAI 4XAZT/M184V ((D67N, K70R, M 184V, T215Y, K219Q) resistant to AZT and 3TC), xxLAI M5456-12 (AZT+NNRTI resistant: D67N, K70R, K103N, T215Y), xxLAI G2-3g (AZT/3TC co-resistant: M41L, D67N, M184V, H208Y, L210W, R211K, L214F, T215Y, 1293V, E297A), 11163 (multinucleoside resistant virsus: M41L, A62V, V751, F77L, K103N, F116Y, Q151M, Y181C, M184V), 11588 (multinucleoside resistant virsus: A62V, K65R, K70R, V751, F77L, F116Y, Q151M, M184V, K219Q), and the like.

HIV-1LAI Q161L = assay: p24 reduction assay in MT-2 cells, Q161L; conditions: Table 7; for EC50: Q161L; for Fold-resistance: Q161L relative to wild type virus
Protocol: as §1, §2, §3, §4
(§6) Invention compounds were also evaluated against a panel of HIV-1LAI derived recombinants resistant to PFA and the PFA invention compounds, as shown in Table 7.

HIV-1LAI 4XAZT/W88G = assay: p24 reduction assay in MT-2 cells, 4XAZT/W88G
Protocol: as §1, §2, §3, §4, §6
Recombinant viruses containing the mutations selected by invention compounds were also evaluated for their susceptibility to AZT, as shown in Table 8.

HIV-1LAI W88S = assay: p24 reduction assay in MT-2 cells, W88S; conditions: Table 7; for EC50: W88S; for Fold-resistance: W88S relative to wild type virus
Protocol: as §1, §2, §3, §4, §6

HIV-1LAI E89K = assay: p24 reduction assay in MT-2 cells, E89K; conditions: Table 7; for EC50: E89K; for Fold-resistance: E89K relative to wild type virus
Protocol: as §1, §2, §3, §4, §6

HIV-1LAI 4XAZT/M184V = assay: p24 reduction assay in MT-2 cells, 4XAZT/M184V; conditions: for Fold-resistance: 4XAZT/M184V relative to wild type virus
Protocol: as §1, §2, §3, §4, §5

HIV-1LAI 4XAZT/E89K = assay: p24 reduction assay in MT-2 cells, 4XAZT/E89K; conditions: Table 7; for EC50: 4XAZTE89K; for Fold-resistance: 4XAZTE89K relative to wild type virus
Protocol: as §1, §2, §3, §4, §6

HIV-1LAI M184V = assay: p24 reduction assay in MT-2 cells, M184V; conditions: for EC50: M184V; for Fold-resistance: M184V relative to wild type virus
Protocol: as §1, §2, §3, §4, §5

[1] = system: multidrug-resistant HIV-1 clinical isolate 11163p1; assay: p24 reduction assay in MT-2 cells, 11163p1
Protocol: as §1
as §2, with “[…],” for “was determined by inoculating MT-2 cells with HIV-1LAI at a multiplicity of infection (MOI) of 0.01 TCID50/cell,”
The multi-drug resistant HIV-1 strains, 11163p1 and 11588p1, are human clinical isolates having the RT mutations indicated. […]

[2] = Table 7, 4XAZTW88G, read-out: EC50
[3] = Table 1, 4xAZT/M184V, MOI 0.01, read-out: EC50
[4] = Table 5, 4XAZT/M184V, mean ± SD, read-out: EC50
[5] = Human immunodeficiency virus 1, MT2, Table 1, MOI 0.01
[6] = Human immunodeficiency virus 1, MT2

Compound | EC50 (HIV-1LAI M41L/T215Y; Table 1, MOI 0.01) [µM] | Fold-resistance (HIV-1LAI M41L/T215Y; Table 5) | EC50 (HIV-1LAI M41L/T215Y; Table 5, mean ± SD) [µM] | EC50 (HIV-1LAI Q161L) [µM] | Fold-resistance (HIV-1LAI Q161L) | EC50 (HIV-1LAI 4XAZT/W88G; [2]) [µM] | EC50 (HIV-1LAI W88S) [µM] | Fold-resistance (HIV-1LAI W88S) | EC50 (HIV-1LAI E89K) [µM] | Fold-resistance (HIV-1LAI E89K) | EC50 (HIV-1LAI 4XAZT/M184V; [3]) [µM] | Fold-resistance (HIV-1LAI 4XAZT/M184V; Table 5) | EC50 (HIV-1LAI 4XAZT/M184V; [4]) [µM] | EC50 (HIV-1LAI 4XAZT/E89K) [µM] | Fold-resistance (HIV-1LAI 4XAZT/E89K) | EC50 (HIV-1LAI M184V; Table 1, MOI 0.01) [µM] | Fold-resistance (HIV-1LAI M184V; Table 3) | EC50 (HIV-1LAI M184V; Table 3, mean ± SD) [µM] | EC50 ([1]; Table 2, MOI 0.05) [µM] | also measured
CCCCCCCCCCCCCCCCCCOC[C@@H](O)COP(=O)(O)C(=O)O [B-PFA, 1-O-octadecyl-sn-glycero-3-PFA] | 1.25 | (0.5) | 0.94 ± 1.08 | > 30 | (>17.2) | 16.4 | 20.7 | 1.20 (11.9) | > 30 | (>17.2) | 2.29 | (1.3) | 2.29 ± 1.59 | 17.4 | 14.9 (6.6) | 2.29 | (0.7) | 1.93 ± 0.54 | 3.48 | 
O=C(O)P(=O)(O)O [PFA, phosphonoformate, reference compound] |  | (0.8) |  |  | 14.14 (8.8) |  |  |  |  | 46.24 (6.9) |  | (1.3) |  |  |  |  | (1.7) |  |  | EC50 (HIV-1LAI M41L/T215Y; [5]): 16.2 µM; EC50 (HIV-1LAI M41L/T215Y; Human immunodeficiency virus 1, MT2, Table 5, mean ± SD): 13.9 ± 4.14 µM; EC50 (HIV-1LAI Q161L; [6]): 115 µM; EC50 (HIV-1LAI 4XAZT/W88G; Human immunodeficiency virus 1, MT2, Table 7, 4XAZTW88G, read-out: EC50): 86.2 µM; EC50 (HIV-1LAI W88S; [6]): 67.1 µM; EC50 (HIV-1LAI E89K; [6]): 90.2 µM; EC50 (HIV-1LAI 4XAZT/M184V; Human immunodeficiency virus 1, MT2, Table 1, 4xAZT/M184V, MOI 0.01): 15.7 µM; EC50 (HIV-1LAI 4XAZT/M184V; Human immunodeficiency virus 1, MT2, Table 5, 4XAZT/M184V, mean ± SD, read-out: EC50): 22.7 ± 15.8 µM; EC50 (HIV-1LAI 4XAZT/E89K; [6]): 134 µM; EC50 (HIV-1LAI M184V; [5]): 15.7 µM; EC50 (HIV-1LAI M184V; Human immunodeficiency virus 1, MT2, Table 3, mean ± SD): 33.4 ± 18.7 µM; EC50 ([1]; Human immunodeficiency virus 1, MT2, Table 2, MOI 0.05): 24.4 µM
CCCCCCCCCCCCCCCCCCOC[C@H](COP(=O)(O)C(=O)O)OCC [EB-PFA, 1-O-octadecyl-2-O-ethyl-sn-glycero-3-PFA] | 0.41 | (0.5) | 0.3 ± 0.35 | 6.73 | 0.04 (7.5) | 3.31 | 2.39 | 0.15 (2.7) | 5.21 |  | 0.58 | (0.9) | 0.56 ± 0.08 | 4.39 | 4.59 (5.6) | 0.58 | (0.7) | 1.36 ± 0.93 | 1.23 | 
Cc1cn([C@H]2C[C@H](N=[N+]=[N-])[C@@H](CO)O2)c(=O)[nH]c1=O [AZT, 3′-Azido-3′-deoxythymidine] |  |  |  |  |  |  |  |  |  |  |  |  |  |  |  |  |  |  |  | EC50 (HIV-1LAI 4XAZT/W88G; Human immunodeficiency virus 1, MT2, Table 8, W88G/4XAZT, read-out: AZT EC50): 0.06 ± 0.018 µM; Fold resistance (HIV-1LAI 4XAZT/W88G; Table 8, W88G/4XAZT relative to wild type virus): 1.5
CCCCCCCCCCCCCCCCCCOC[C@H](COP(=O)(O)C(=O)O)OC [MB-PFA, 1-O-octadecyl-2-O-methyl-sn-glycero-3-PFA] | 0.13 | (0.4) | 0.18 ± 0.11 | 8.78 | 1.58 (11.4) | 2.46 | 2.49 | 0.12 (3.2) | 7.21 | 0.12 (9.4) | 0.48 | (1.2) | 0.59 ± 0.36 | 9.28 | 9.20 (11.1) | 0.48 | (1.7) | 1.51 ± 0.45 |  | 
